# Test results taken from patent US20060069132A1, “Azolecarboxamide herbicides” (priority 2004, published 2006).
# Legend:
# rice [1] = assay: Test C flooded paddy test; format: in vivo, Oryza sativa
# Method in brief: (§1)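 Postemergence sprays applied to plants 2 to 18 cm tall (1- to 4-leaf stage); paddy species grown to 2-leaf stage under flooding. After 12 to 14 days in greenhouse, visual rating versus untreated controls on 0–100 scale (0 no effect, 100 complete control).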
# cocklebur = assay: Test B pre-/postemergence herbicide test; format: in vivo, Xanthium strumarium; conditions: for Cocklebur plant response rating: postemergence, scale 0 (no effect) to 100 (complete control)
# Method in brief: (§2)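 Test chemicals in a non-phytotoxic solvent mixture with surfactant were applied preemergence to seeded species and postemergence to plants 2-18 cm tall (1- to 4-leaf stage); rice and barnyardgrass were also tested in a flooded paddy at the 2-leaf stage. Visual rating versus controls after 13-15 days in greenhouse, scale 0 (no effect) to 100 (complete control).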
# wild oat = assay: Test B postemergence herbicide test; format: in vivo, Avena fatua; conditions: postemergence
# Method in brief: (§3)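 Postemergence plants were sprayed with formulated test chemicals at 2 to 18 cm height (1- to 4-leaf stage); paddy species were grown to the 2-leaf stage. After 13 to 15 days in a greenhouse, injury was rated visually against untreated controls on a 0–100 scale (0 = no effect, 100 = complete control).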
# Surinam grass = assay: Test B pre-/postemergence herbicide test; format: in vivo, Urochloa decumbens; conditions: for Surinam Grass plant response rating: postemergence
# Method in brief: (§4)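 Flooded paddy rice and barnyardgrass were treated at the 2-leaf stage; upland plantings received compound either on sown seed or on 1- to 4-leaf seedlings. All were kept 13–15 days in a greenhouse and scored visually, 0–100, relative to untreated plants.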
# barnyardgrass [2] = assay: Test B flooded paddy test; format: in vivo, Echinochloa crus-galli; conditions: 1000 g ai/ha, scale 0 to 100 (0 no effect, 100 complete control)
# Method in brief: (§5)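 Paddy species grown to the 2-leaf stage under flooding; blackgrass sprayed postemergence at 2–18 cm (1- to 4-leaf stage). Plants kept in a greenhouse for 13 to 15 days, then visually rated against controls on 0 (no effect) to 100 (complete control).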
# rice [3] = assay: Test B pre-/postemergence herbicide test; format: in vivo, Oryza sativa; conditions: 0 = no effect, 100 = complete control, preemergence
# Method in brief: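 Evaluation is visual, comparing treated with control plants on a scale where 0 means no effect and 100 means full control. Treatments were preemergence, or postemergence on seedlings 2–18 cm tall, and held 13–15 days in the greenhouse.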
# barnyardgrass [4] = assay: Test C flooded paddy test; format: in vivo, Echinochloa crus-galli
# Method in brief: as §1
# ducksalad [5] = assay: Test B flooded paddy test; format: in vivo, Heteranthera limosa; conditions: 1000 g ai/ha, scale 0 to 100 (0 no effect, 100 complete control)
# Method in brief: as §5
# large crabgrass = assay: Test B pre-/postemergence herbicide test; format: in vivo, Digitaria sanguinalis; conditions: for Crabgrass, Large plant response rating: postemergence
# Method in brief: as §4
# [6] = test system: small flower umbrella sedge; assay: Test B flooded paddy test; format: in vivo, Cyperus difformis; conditions: 1000 g ai/ha, scale 0 to 100 (0 no effect, 100 complete control)
# Method in brief: as §5
# ducksalad [7] = assay: Test C flooded paddy test; format: in vivo, Heteranthera limosa
# [8] = test system: smallflower umbrella sedge; assay: Test C flooded paddy test; format: in vivo, Cyperus difformis
# giant foxtail = assay: Test B pre-/postemergence herbicide test; format: in vivo, Setaria faberi; conditions: for Foxtail, Giant plant response rating: postemergence
# Method in brief: as §4
# morningglory = assay: Test B pre-/postemergence herbicide test; format: in vivo, Ipomoea coccinea; conditions: for Morningglory plant response rating: postemergence
# Method in brief: as §2
# velvetleaf = assay: Test B pre-/postemergence herbicide test; format: in vivo, Abutilon theophrasti; conditions: for Velvetleaf plant response rating: postemergence
# Method in brief: as §4
# blackgrass = assay: Test B postemergence herbicide test; format: in vivo, Alopecurus myosuroides; conditions: postemergence, visual rating, scale 0 (no effect) to 100 (complete control)
# Method in brief: as §5
# rice [9] = assay: Test B flooded paddy test; format: in vivo, Oryza sativa; conditions: 1000 g ai/ha, scale 0 to 100 (0 no effect, 100 complete control)
# Method in brief: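 After treating 2-leaf paddy plants or 2–18 cm postemergence plants (1 to 4 leaves) with formulated chemical, researchers kept them in a greenhouse for 13–15 days. Effects were judged visually versus controls: 0 indicates none, 100 total control.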
# wheat = assay: Test B postemergence herbicide test; format: in vivo, Triticum aestivum; set-up: key to Wheat plant response rating: 0 = no effect, 100 = complete control; conditions: postemergence
# Method in brief: as §3
# corn = assay: Test B pre-/postemergence herbicide test; format: in vivo, Zea mays; conditions: for Corn plant response rating: postemergence
# Method in brief: as §4
# lambsquarters = assay: Test B pre-/postemergence herbicide test; format: in vivo, Chenopodium album; conditions: for Lambsquarters plant response rating: postemergence
# Method in brief: as §4
# pigweed = assay: Test B pre-/postemergence herbicide test; format: in vivo, Amaranthus retroflexus; conditions: for Pigweed plant response rating: postemergence
# Method in brief: as §4
# barnyardgrass [10] = assay: Test B pre-/postemergence herbicide test; format: in vivo, Echinochloa crus-galli; conditions: for Barnyardgrass plant response rating: postemergence, scale 0 (no effect) to 100 (complete control)
# Method in brief: as §2
# [11] = 62 g ai/ha, scale 0 to 100 (0 no effect, 100 complete control)
# [12] = 125 g ai/ha, scale 0 to 100 (0 no effect, 100 complete control)
# [13] = 250 g ai/ha, scale of 0 to 100, 0 is no effect, 100 is complete control
# [14] = 500 g ai/ha, visual rating after 12 to 14 days, scale 0 to 100 (0 no effect, 100 complete control)
# [15] = 125 g ai/ha, 0 = no effect, 100 = complete control, preemergence
# [16] = 500 g ai/ha, visual rating, 0 = no effect, 100 = complete control, preemergence
# [17] = 125 g ai/ha, visual rating, scale 0 (no effect) to 100 (complete control)
# [18] = 500 g ai/ha, scale 0 to 100, 0 is no effect, 100 is complete control
compound,measurement,setting,value
CCn1nc(C(C)(C)C)cc1C(=O)Nc1cc(C(=O)N2CCOCC2)ccc1F [Compound 243],Rice plant response rating,rice [1]; [11],15
same,Rice plant response rating,rice [1]; [12],75
same,Rice plant response rating,rice [1]; [13],80
same,"Plant response rating, Rice",rice [1]; [14],90
same,Cocklebur plant response rating (0 to 100 scale),cocklebur; [15],0
same,"Plant response rating, Cocklebur",cocklebur; [16],20
same,Cocklebur plant response rating,"cocklebur; 125 g ai/ha, visual rating",10
same,Cocklebur plant response rating,"cocklebur; 500 g ai/ha, visual rating",30
same,"Oat, Wild plant response rating",wild oat; [17],0
same,"Oat, Wild plant response rating",wild oat; [18],20
same,Surinam Grass plant response rating (0 to 100 scale),Surinam grass; [15],60
same,"Plant response rating, Surinam Grass",Surinam grass; [16],80
same,Surinam Grass plant response rating,Surinam grass; [17],10
same,Surinam Grass plant response rating,Surinam grass; [18],20
same,Barnyardgrass plant response rating,barnyardgrass [2],90
same,Rice plant response rating (0 to 100 scale),rice [3]; 125 g ai/ha,20
same,"Plant response rating, Rice","rice [3]; 500 g ai/ha, visual rating",80
same,Barnyardgrass plant response rating,barnyardgrass [4]; [11],0
same,Barnyardgrass plant response rating,barnyardgrass [4]; [12],65
same,Barnyardgrass plant response rating,barnyardgrass [4]; [13],75
same,"Plant response rating, Barnyardgrass",barnyardgrass [4]; [14],85
same,Ducksalad plant response rating,ducksalad [5],90
same,"Crabgrass, Large plant response rating (0 to 100 scale)",large crabgrass; [15],60
same,"Plant response rating, Crabgrass, Large",large crabgrass; [16],100
same,"Crabgrass, Large plant response rating",large crabgrass; [17],10
same,"Crabgrass, Large plant response rating",large crabgrass; [18],10
same,"Sedge, Umbrella plant response rating",[6],80
same,Ducksalad plant response rating,ducksalad [7]; [11],75
same,Ducksalad plant response rating,ducksalad [7]; [12],85
same,Ducksalad plant response rating,ducksalad [7]; [13],90
same,"Plant response rating, Ducksalad",ducksalad [7]; [14],90
same,"Sedge, Umbrella plant response rating",[8]; [11],75
same,"Sedge, Umbrella plant response rating",[8]; [12],80
same,"Sedge, Umbrella plant response rating",[8]; [13],80
same,"Plant response rating, Sedge, Umbrella",[8]; [14],80
same,"Foxtail, Giant plant response rating (0 to 100 scale)",giant foxtail; [15],50
same,"Plant response rating, Foxtail, Giant",giant foxtail; [16],80
same,"Foxtail, Giant plant response rating",giant foxtail; [17],10
same,"Foxtail, Giant plant response rating",giant foxtail; [18],20
same,Morningglory plant response rating (0 to 100 scale),morningglory; [15],0
same,"Plant response rating, Morningglory",morningglory; [16],0
same,Morningglory plant response rating,morningglory; [17],0
same,Morningglory plant response rating,morningglory; [18],20
same,Velvetleaf plant response rating (0 to 100 scale),velvetleaf; [15],40
same,"Plant response rating, Velvetleaf",velvetleaf; [16],100
same,Velvetleaf plant response rating,velvetleaf; [17],50
same,Velvetleaf plant response rating,velvetleaf; [18],60
same,Blackgrass plant response rating,blackgrass; 125 g ai/ha,0
same,Blackgrass plant response rating,blackgrass; 500 g ai/ha,0
same,Rice plant response rating,rice [9],90
same,Wheat plant response rating,wheat; [17],0
same,Wheat plant response rating,wheat; [18],0
same,Corn plant response rating (0 to 100 scale),corn; [15],20
same,"Plant response rating, Corn",corn; [16],50
same,Corn plant response rating,corn; [17],10
same,Corn plant response rating,corn; [18],10
same,Lambsquarters plant response rating (0 to 100 scale),lambsquarters; [15],90
same,"Plant response rating, Lambsquarters",lambsquarters; [16],100
same,Lambsquarters plant response rating,lambsquarters; [17],70
same,Lambsquarters plant response rating,lambsquarters; [18],80
same,Pigweed plant response rating (0 to 100 scale),pigweed; [15],60
same,"Plant response rating, Pigweed",pigweed; [16],100
same,Pigweed plant response rating,pigweed; [17],20
same,Pigweed plant response rating,pigweed; [18],60
same,Barnyardgrass plant response rating (0 to 100 scale),barnyardgrass [10]; [15],70
same,"Plant response rating, Barnyardgrass",barnyardgrass [10]; [16],90
same,Barnyardgrass plant response rating,"barnyardgrass [10]; 125 g ai/ha, visual rating",10
same,Barnyardgrass plant response rating,"barnyardgrass [10]; 500 g ai/ha, visual rating",20
